For this assay, the target named is T1, APOL1 (tet-inducible transgenic APOL1 T-REx-HEK293 cell lines) (Homo sapiens, UniProt O14791).
T1 sequence (O14791 1-398 S342G/I384M): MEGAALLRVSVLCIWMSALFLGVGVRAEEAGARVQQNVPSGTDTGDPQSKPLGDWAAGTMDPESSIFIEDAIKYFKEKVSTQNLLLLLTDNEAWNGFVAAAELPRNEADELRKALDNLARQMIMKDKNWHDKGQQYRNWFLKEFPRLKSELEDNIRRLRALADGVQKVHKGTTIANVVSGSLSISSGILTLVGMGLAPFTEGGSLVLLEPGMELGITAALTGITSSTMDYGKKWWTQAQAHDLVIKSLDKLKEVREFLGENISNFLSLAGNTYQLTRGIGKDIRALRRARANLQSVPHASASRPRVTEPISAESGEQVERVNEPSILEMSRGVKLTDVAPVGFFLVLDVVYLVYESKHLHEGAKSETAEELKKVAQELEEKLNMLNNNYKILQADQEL
Put plainly: MultiTox-Fluor Multiplex Cytotoxicity Assay for APOL1 inhibitor properties. The format is cell-based. The settings on record: APOL1 induced with 50 ng/mL tet, 24 hours with compound, ratio of dead to live cells, top concentration 10 μM; APOL1 variant (G0/G1/G2) not stated; read-out: IP50 (nM) (i.e., IC50 for cell proliferation). The protocol:
The MultiTox-Fluor Multiplex Cytotoxicity Assay is a single-reagent-addition, homogeneous, fluorescence assay that measures the number of live and dead cells simultaneously in culture wells. The assay measures cell viability and cytotoxicity by detecting two distinct protease activities. The live-cell protease activity is restricted to intact viable cells and is measured using a fluorogenic, cell-permeant peptide glycyl-phenylalanylamino fluorocoumarin (GF-AFC) substrate. The substrate enters intact cells, where it is cleaved to generate a fluorescent signal proportional to the number of living cells. […] A second, cell-impermeant, fluorogenic peptide substrate (bis-AAF-R110 Substrate) is used to measure dead-cell protease that has been released from cells that have lost membrane integrity. A ratio of dead to live cells is used to normalize data.
Briefly, the tet-inducible transgenic APOL1 T-REx-HEK293 cell lines were incubated with 50 ng/mL tet to induce APOL1 in the presence of 3-(2-(4-fluorophenyl)-1H-indol-3-yl)-N-((3S,4R)-4-hydroxy-2-oxopyrrolidin-3-yl)propenamide at 10.03, 3.24, 1.13, 0.356, 0.129, 0.042, 0.129, 0.0045, 0.0015, 0.0005 μM in duplicate for 24 hours in a humidified 37° C. incubator. The MultiTox reagent was added to each well and placed back in the incubator for an additional 30 minutes. The plate was read on the EnVision plate reader. A ratio of dead to live cells was used to normalize, and data was imported, analyzed, and fit using Genedata Screener (Basel, Switzerland) software. Data was normalized using percent of control, no tet (100% viability), and 50 ng/mL tet treated (0% viability), and fit using Smart Fit. The reagents, methods, and complete protocol for the MultiTox assay are described below.
Human embryonic kidney (HEK293) cell lines containing a tet-inducible expression system (T-REx™; Invitrogen, Carlsbad, CA) and Adeno-associated virus site 1 pAAVS1-Puro-APOL1 G0 or pAAVS1-Puro-APOL1 G1 or pAAVS1-Puro-APOL1 G2 Clones G0 DC2.13, G1 DC3.25, and G2 DC4.44 were grown in a T-225 flask at ˜90% confluency in cell growth media (DMEM, 10% Tet-free FBS, 2 mM L-glutamine, 100 Units/mL penicillin-streptomycin, 5 μg/mL blasticidin S HCl, 1 μg/mL puromycin dihydrochloride). Cells were washed with DPBS and then trypsinized to dissociate from the flask. Media was used to quench the trypsin, cells were then pelleted at 200 g and resuspended in fresh cell assay media (DMEM, 2% Tet-free FBS, 2 mM L-glutamine, 100 Units/mL penicillin-streptomycin). Cells were counted and diluted to 1.17×10^6 cells/mL. 20 μL of cells (23,400/well) were dispensed in every well of a 384-well Poly-D-Lysine coated plate using the Multidrop dispenser. The plates were then incubated at room temperature for one hour.
Tetracycline is needed to induce APOL1 expression. 1 mg/mL tet stock in water was diluted to 250 ng/mL (5×) in cell assay media. 60 μL of cell assay media (no tet control) was dispensed in columns 1 and 24, and 60 μL of 5×tet in 384-PP-round bottom plate was dispensed in columns 2 to 23 with the Multidrop dispenser.
Assay ready plates from the Global Compound Archive were ordered using template 384_APOL1Cell_DR10n2_50 uM_v3. Compounds were dispensed at 200 nL in DMSO. The final top concentration was 10 μM with a 10 point 3-fold dilution in duplicate in the MultiTox assay.
20 μL was transferred from the 5×tet plate to the ARP and mixed, then 5 μL of 5×tet and the compounds were transferred to the cell plate and mixed using the Bravo. The cell plate was placed in the humidified 37° C. 5% CO2 incubator for 24 hours.
The MultiTox-Fluor Multiplex Cytotoxicity Assay was performed in accordance with the manufacturer's protocol. After cells were incubated with tet and compound for 24 hours, 25 μL of 1×MultiTox reagent was added to each well using the Multidrop dispenser; the plates were placed on a plate shaker (600 rpm) for 2 minutes, then centrifuged briefly and placed back in the 37° C. incubator for 30 minutes. […]

SMILES strings stand for the structures.

Regarding `C[C@H]1C[C@@](O)(c2ccc(C(F)(F)C(F)(F)F)cc2)C[C@@H](c2cn(C)nn2)N1` [Compound 47], the IC50 is at most 50 nM. Turning to `C[C@H]1C[C@@](O)(c2cccc(C(F)(F)F)c2)C[C@@H](c2cn(C)nn2)N1` [Compound 48], the IC50 fell in the range of 50 to 500 nM.

Consider `C[C@H]1C[C@@](O)(c2ccc(SC3CC3)cc2)C[C@@H](c2cn(C)nn2)N1` [Compound 49], for which the IC50 is 50 to 500 nM. Then `C[C@H]1C[C@@](O)(c2ccc(C(F)(F)F)c(OC(F)(F)F)c2)C[C@@H](c2cn(C)nn2)N1` [Compound 50], with at most 50 nM; and `C[C@H]1C[C@@](O)(c2ccc(C(F)(F)F)c(C(F)(F)F)c2)C[C@@H](c2cn(C)nn2)N1` [Compound 51], with at most 50 nM; and `C[C@H]1C[C@@](O)(c2ccc3cn[nH]c3c2)C[C@@H](c2cn(C)nn2)N1` [Compound 52], with at most 50 nM. Then `C[C@H]1C[C@@](O)(c2ccc3c(c2)OCC3)C[C@@H](c2cn(C)nn2)N1` [Compound 53], with at least 500 nM; and `C[C@H]1C[C@@](O)(c2ccc3cn(C)nc3c2)C[C@@H](c2cn(C)nn2)N1` [Compound 54], with at least 500 nM. Consider `C[C@H]1C[C@@](O)(c2ccc3c(c2)nnn3C)C[C@@H](c2cn(C)nn2)N1` [Compound 55], for which the IC50 is at least 500 nM. In the case of `C[C@H]1C[C@@](O)(c2ccc3c(cnn3C)c2)C[C@@H](c2cn(C)nn2)N1` [Compound 56] it was at least 500 nM; in that of `C[C@H]1C[C@@](O)(c2ccc3nnn(C)c3c2)C[C@@H](c2cn(C)nn2)N1` [Compound 57], at least 500 nM. Then `C[C@H]1C[C@@](O)(c2ccc3cnn(C)c3c2)C[C@@H](c2cn(C)nn2)N1` [Compound 58], with at most 50 nM; and `Cc1nn(C)c2ccc([C@@]3(O)C[C@@H](c4cn(C)nn4)N[C@@H](C)C3)cc12` [Compound 59], with 50 to 500 nM; and `C[C@H]1C[C@@](O)(C2CCCCC2)C[C@@H](c2cn(C)nn2)N1` [Compound 60, (2S,4S,6S)-4-cyclohexyl-2-methyl-6-(1-methyltriazol-4-yl)piperidin-4-ol], with at least 500 nM. As to `C[C@H]1C[C@@](O)(Cc2cccc(C(F)(F)F)c2)C[C@@H](c2cn(C)nn2)N1` [Compound 61, (2S,4S,6S)-2-methyl-6-(1-methyltriazol-4-yl)-4-[[3-(trifluoromethyl)phenyl]methyl]piperidin-4-ol], the IC50 is at least 500 nM. In the case of `CC1CC(O)(c2ccc(C(F)(F)F)cc2)CC(c2c[nH]nn2)N1` (stereo not drawn) [Compound 62, 2-methyl-6-(1H-triazol-4-yl)-4-[4-(trifluoromethyl)phenyl]piperidin-4-ol] it was at most 50 nM; in that of `C[C@H]1C[C@@](C#N)(c2ccc(Cl)cn2)C[C@@H](c2cn(C)nn2)N1` [Compound 63, (2S,4S,6S)-4-(5-chloropyridin-2-yl)-2-methyl-6-(1-methyl-1H-1,2,3-triazol-4-yl)piperidine-4-carbonitrile], at least 500 nM. In the case of `C[C@H]1C[C@@](C(N)=O)(c2ccc(Cl)cn2)C[C@@H](c2cn(C)nn2)N1` [Compound 64] it was at least 500 nM; in that of `C[C@H]1C[C@@](CO)(c2ccc(C(F)(F)F)cc2)C[C@@H](c2cn(C)nn2)N1` [Compound 65, ((2S,4S,6S)-2-methyl-6-(1-methyl-1H-1,2,3-triazol-4-yl)-4-(4-(trifluoromethyl)phenyl)piperidin-4-yl)methanol], 50 to 500 nM. In the case of `C[C@H]1C[C@@H](c2ccc(C(F)(F)F)cc2)C[C@@H](c2cn(C)nn2)N1` [Compound 66, (2S,4R,6S)-2-methyl-6-(1-methyltriazol-4-yl)-4-[4-(trifluoromethyl)phenyl]piperidine] it was 50 to 500 nM; in that of `C[C@H]1C[C@@](C(N)=O)(c2ccc(C(F)(F)F)cc2)C[C@@H](c2cn(C)nn2)N1` [Compound 67, (2S,4S,6S)-2-methyl-6-(1-methyl-1H-1,2,3-triazol-4-yl)-4-(4-(trifluoromethyl)phenyl)piperidine-4-carboxamide], 50 to 500 nM.

Source of the values: patent US12612379B2, “Inhibitors of APOL1 and methods of using same” (Vertex Pharmaceuticals Incorporated, priority 2021, dated 2026).
